Data as given in ChEMBL document CHEMBL1150262, “Ring size of somatostatin analogues (ODT-8) modulates receptor selectivity and binding affinity” (J Med Chem, 2008).

Columns and labels:
[1] = biological target: Somatostatin receptor type 5 (Homo sapiens, UniProt P35346); test: Displacement of [125I]-[Leu8, DTrp22, Tyr25]SRIF-28 from human cloned sst5 receptor expressed in CHOK1 cells; format: cell-based, CHO-K1
[2] = biological target: Somatostatin receptor type 4 (Homo sapiens, UniProt P31391); test: Displacement of [125I]-[Leu8, DTrp22, Tyr25]SRIF-28 from human cloned sst4 receptor expressed in CCL39 cells; format: cell-based
[3] = biological target: Somatostatin receptor type 1 (Homo sapiens, UniProt P30872); test: Displacement of [125I]-[Leu8, DTrp22, Tyr25]SRIF28 from human cloned sst1 receptor
[4] = biological target: Somatostatin receptor type 2 (Homo sapiens, UniProt P30874); test: Displacement of [125I]-[Leu8, DTrp22, Tyr25]SRIF-28 from human cloned sst2 receptor expressed in CCL39 cells; format: cell-based
[5] = biological target: Somatostatin receptor type 3 (Homo sapiens, UniProt P32745); test: Displacement of [125I]-[Leu8, DTrp22, Tyr25]SRIF-28 from human cloned sst3 receptor expressed in CCL39 cells; format: cell-based
Sequence of Somatostatin receptor type 3 (P32745 whole entry): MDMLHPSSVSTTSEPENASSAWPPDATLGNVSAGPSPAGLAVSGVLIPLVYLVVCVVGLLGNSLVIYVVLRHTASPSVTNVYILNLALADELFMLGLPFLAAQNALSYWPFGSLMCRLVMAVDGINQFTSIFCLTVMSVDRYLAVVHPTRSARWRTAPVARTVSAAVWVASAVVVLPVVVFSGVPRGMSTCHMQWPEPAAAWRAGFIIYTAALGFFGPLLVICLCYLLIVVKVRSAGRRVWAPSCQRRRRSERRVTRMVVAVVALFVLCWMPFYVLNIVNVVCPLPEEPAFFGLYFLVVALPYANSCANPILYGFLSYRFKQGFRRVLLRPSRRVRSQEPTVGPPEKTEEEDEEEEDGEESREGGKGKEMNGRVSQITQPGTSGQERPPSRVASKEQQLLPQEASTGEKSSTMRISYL

Sequence of Somatostatin receptor type 1 (P30872 whole entry): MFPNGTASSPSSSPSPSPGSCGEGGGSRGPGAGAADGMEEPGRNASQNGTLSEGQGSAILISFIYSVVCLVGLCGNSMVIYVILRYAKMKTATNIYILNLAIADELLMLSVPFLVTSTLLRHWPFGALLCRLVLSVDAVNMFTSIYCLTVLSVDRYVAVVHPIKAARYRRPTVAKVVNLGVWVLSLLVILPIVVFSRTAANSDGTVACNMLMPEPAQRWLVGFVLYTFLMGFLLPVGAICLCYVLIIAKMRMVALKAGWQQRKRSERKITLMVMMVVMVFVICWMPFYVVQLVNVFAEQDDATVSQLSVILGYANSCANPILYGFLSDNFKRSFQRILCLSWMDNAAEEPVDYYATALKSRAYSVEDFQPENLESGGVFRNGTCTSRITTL
Sequence of Somatostatin receptor type 4 (P31391 whole entry): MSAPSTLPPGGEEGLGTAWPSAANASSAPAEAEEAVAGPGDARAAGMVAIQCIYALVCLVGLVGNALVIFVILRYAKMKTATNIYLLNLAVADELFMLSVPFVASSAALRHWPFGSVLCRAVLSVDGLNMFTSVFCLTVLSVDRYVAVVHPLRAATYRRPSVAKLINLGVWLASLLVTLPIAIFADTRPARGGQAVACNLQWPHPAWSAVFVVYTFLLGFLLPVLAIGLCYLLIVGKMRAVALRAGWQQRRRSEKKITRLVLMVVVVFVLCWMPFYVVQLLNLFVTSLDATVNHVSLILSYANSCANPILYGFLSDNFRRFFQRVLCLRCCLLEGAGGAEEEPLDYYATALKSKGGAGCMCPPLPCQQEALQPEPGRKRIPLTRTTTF
Sequence of Somatostatin receptor type 5 (P35346 whole entry): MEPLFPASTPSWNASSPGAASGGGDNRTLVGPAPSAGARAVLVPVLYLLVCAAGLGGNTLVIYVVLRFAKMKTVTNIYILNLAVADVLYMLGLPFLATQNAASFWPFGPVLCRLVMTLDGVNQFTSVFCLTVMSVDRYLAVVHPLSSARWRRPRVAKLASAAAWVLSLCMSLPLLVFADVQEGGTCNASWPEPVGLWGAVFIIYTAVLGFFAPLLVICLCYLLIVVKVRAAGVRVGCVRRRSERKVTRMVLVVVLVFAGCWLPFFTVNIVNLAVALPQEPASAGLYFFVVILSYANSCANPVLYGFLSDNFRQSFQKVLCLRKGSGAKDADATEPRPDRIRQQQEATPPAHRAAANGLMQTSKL
Sequence of Somatostatin receptor type 2 (P30874 whole entry): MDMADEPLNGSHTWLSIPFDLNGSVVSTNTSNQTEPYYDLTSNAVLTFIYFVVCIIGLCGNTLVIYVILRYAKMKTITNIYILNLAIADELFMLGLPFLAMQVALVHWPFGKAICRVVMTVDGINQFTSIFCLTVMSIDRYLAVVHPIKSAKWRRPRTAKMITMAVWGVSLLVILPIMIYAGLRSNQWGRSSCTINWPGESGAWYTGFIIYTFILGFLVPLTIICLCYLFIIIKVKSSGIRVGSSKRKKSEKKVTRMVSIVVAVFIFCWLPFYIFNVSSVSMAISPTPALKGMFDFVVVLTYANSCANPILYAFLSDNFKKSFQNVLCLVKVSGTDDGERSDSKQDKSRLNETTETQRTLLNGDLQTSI

| IC50 [1] | IC50 [2] | IC50 [3] | IC50 [4] | IC50 [5] | Structure (SMILES) |
| --- | --- | --- | --- | --- | --- |
| 50 nM | 4.4 nM | > 1000 nM | 11 nM | 69 nM | CC(=O)N[C@@H]1SSC[C@H](C(=O)O)NC(=O)[C@H](Cc2ccccc2)NC(=O)[C@H]([C@@H](C)O)NC(=O)[C@H](CCCCN)NC(=O)[C@@H](Cc2c[nH]c3ccccc23)NC(=O)[C@H](Cc2ccccc2)NC(=O)[C@H](Cc2ccccc2)NC1=O |
| 46 nM | 3.1 nM | 416 nM | 42 nM | 14 nM | CC(=O)N[C@H]1SSC[C@@H](C(=O)O)NC(=O)[C@H](Cc2ccccc2)NC(=O)[C@H]([C@@H](C)O)NC(=O)[C@H](CCCCN)NC(=O)[C@@H](Cc2c[nH]c3ccccc23)NC(=O)[C@H](Cc2ccccc2)NC(=O)[C@H](Cc2ccccc2)NC1=O |
| 9 nM | 1.9 nM | 79 nM | 33 nM | 6 nM | CC(=O)N[C@@H]1SSC[C@@H](C(=O)O)NC(=O)[C@H](Cc2ccccc2)NC(=O)[C@H]([C@@H](C)O)NC(=O)[C@H](CCCCN)NC(=O)[C@@H](Cc2c[nH]c3ccccc23)NC(=O)[C@H](Cc2ccccc2)NC(=O)[C@H](Cc2ccccc2)NC1=O |
| 50 nM | 5 nM | > 1000 nM | 13 nM | 28 nM | CC(=O)N[C@H]1SSC[C@H](C(=O)O)NC(=O)[C@H](Cc2ccccc2)NC(=O)[C@H]([C@@H](C)O)NC(=O)[C@H](CCCCN)NC(=O)[C@@H](Cc2c[nH]c3ccccc23)NC(=O)[C@H](Cc2ccccc2)NC(=O)[C@H](Cc2ccccc2)NC1=O |
| 26 nM | 1.3 nM | 22 nM | 49 nM | 7.1 nM | CC(=O)N[C@H]1CSSC[C@@H](C(=O)O)NC(=O)[C@H](Cc2ccccc2)NC(=O)[C@H]([C@@H](C)O)NC(=O)[C@H](CCCCN)NC(=O)[C@@H](Cc2c[nH]c3ccccc23)NC(=O)[C@H](Cc2ccccc2)NC(=O)[C@H](Cc2ccccc2)NC1=O |
| 28 nM | 0.9 nM | 96 nM | 6.5 nM | 38 nM | CC(=O)N[C@H]1CCSSC[C@@H](C(=O)O)NC(=O)[C@H](Cc2ccccc2)NC(=O)[C@H]([C@@H](C)O)NC(=O)[C@H](CCCCN)NC(=O)[C@@H](Cc2c[nH]c3ccccc23)NC(=O)[C@H](Cc2ccccc2)NC(=O)[C@H](Cc2ccccc2)NC1=O |
| 9.1 nM | 0.7 nM | 16 nM | 8 nM | 19 nM | CC(=O)N[C@@H]1CSSC[C@@H](C(=O)O)NC(=O)[C@H](Cc2ccccc2)NC(=O)[C@H]([C@@H](C)O)NC(=O)[C@H](CCCCN)NC(=O)[C@@H](Cc2c[nH]c3ccccc23)NC(=O)[C@H](Cc2ccccc2)NC(=O)[C@H](Cc2ccccc2)NC1=O |
| 90 nM | 1.4 nM | 218 nM | 40 nM | 69 nM | CC(=O)N[C@@H]1CCSSC[C@@H](C(=O)O)NC(=O)[C@H](Cc2ccccc2)NC(=O)[C@H]([C@@H](C)O)NC(=O)[C@H](CCCCN)NC(=O)[C@@H](Cc2c[nH]c3ccccc23)NC(=O)[C@H](Cc2ccccc2)NC(=O)[C@H](Cc2ccccc2)NC1=O |
| 17 nM | 3 nM | > 1000 nM | 4.8 nM | 36 nM | CC(=O)N[C@@H]1CSS[C@@H](C(=O)O)NC(=O)[C@H](Cc2ccccc2)NC(=O)[C@H]([C@@H](C)O)NC(=O)[C@H](CCCCN)NC(=O)[C@@H](Cc2c[nH]c3ccccc23)NC(=O)[C@H](Cc2ccccc2)NC(=O)[C@H](Cc2ccccc2)NC1=O |
| 82 nM | 6 nM | > 1000 nM | 5.4 nM | 53 nM | CC(=O)N[C@H]1CSS[C@@H](C(=O)O)NC(=O)[C@H](Cc2ccccc2)NC(=O)[C@H]([C@@H](C)O)NC(=O)[C@H](CCCCN)NC(=O)[C@@H](Cc2c[nH]c3ccccc23)NC(=O)[C@H](Cc2ccccc2)NC(=O)[C@H](Cc2ccccc2)NC1=O |
| 7.4 nM | 3.25 nM | > 1000 nM | 9 nM | 15 nM | CC(=O)N[C@@H]1CSSC[C@H](C(=O)O)NC(=O)[C@H](Cc2ccccc2)NC(=O)[C@H]([C@@H](C)O)NC(=O)[C@H](CCCCN)NC(=O)[C@@H](Cc2c[nH]c3ccccc23)NC(=O)[C@H](Cc2ccccc2)NC(=O)[C@H](Cc2ccccc2)NC1=O |
| 21 nM | 2.2 nM | > 1000 nM | 13 nM | 31 nM | CC(=O)N[C@H]1SS[C@@H](C(=O)O)NC(=O)[C@H](Cc2ccccc2)NC(=O)[C@H]([C@@H](C)O)NC(=O)[C@H](CCCCN)NC(=O)[C@@H](Cc2c[nH]c3ccccc23)NC(=O)[C@H](Cc2ccccc2)NC(=O)[C@H](Cc2ccccc2)NC1=O |
| 51 nM | 1.5 nM | 540 nM | 18.5 nM | 30 nM | CC(=O)N[C@@H]1CSS[C@H](C(=O)O)NC(=O)[C@H](Cc2ccccc2)NC(=O)[C@H]([C@@H](C)O)NC(=O)[C@H](CCCCN)NC(=O)[C@@H](Cc2c[nH]c3ccccc23)NC(=O)[C@H](Cc2ccccc2)NC(=O)[C@H](Cc2ccccc2)NC1=O |
| 11 nM | 4.5 nM | > 1000 nM | 4.9 nM | 12 nM | CC(=O)N[C@H]1CSSC[C@H](C(=O)O)NC(=O)[C@H](Cc2ccccc2)NC(=O)[C@H]([C@@H](C)O)NC(=O)[C@H](CCCCN)NC(=O)[C@@H](Cc2c[nH]c3ccccc23)NC(=O)[C@H](Cc2ccccc2)NC(=O)[C@H](Cc2ccccc2)NC1=O |
| 107 nM | 2.7 nM | > 1000 nM | 109 nM | 45 nM | CC(=O)N[C@H]1SS[C@H](C(=O)O)NC(=O)[C@H](Cc2ccccc2)NC(=O)[C@H]([C@@H](C)O)NC(=O)[C@H](CCCCN)NC(=O)[C@@H](Cc2c[nH]c3ccccc23)NC(=O)[C@H](Cc2ccccc2)NC(=O)[C@H](Cc2ccccc2)NC1=O |
| 50 nM | 2 nM | 358 nM | 41 nM | 20 nM | CC(=O)N[C@H]1CSS[C@H](C(=O)O)NC(=O)[C@H](Cc2ccccc2)NC(=O)[C@H]([C@@H](C)O)NC(=O)[C@H](CCCCN)NC(=O)[C@@H](Cc2c[nH]c3ccccc23)NC(=O)[C@H](Cc2ccccc2)NC(=O)[C@H](Cc2ccccc2)NC1=O |
| 60 nM | 2.6 nM | > 1000 nM | 3.9 nM | 50 nM | CC(=O)N[C@@H]1SS[C@@H](C(=O)O)NC(=O)[C@H](Cc2ccccc2)NC(=O)[C@H]([C@@H](C)O)NC(=O)[C@H](CCCCN)NC(=O)[C@@H](Cc2c[nH]c3ccccc23)NC(=O)[C@H](Cc2ccccc2)NC(=O)[C@H](Cc2ccccc2)NC1=O |
| 57 nM | 1.6 nM | 302 nM | 34 nM | 19 nM | CC(=O)N[C@@H]1SS[C@H](C(=O)O)NC(=O)[C@H](Cc2ccccc2)NC(=O)[C@H]([C@@H](C)O)NC(=O)[C@H](CCCCN)NC(=O)[C@@H](Cc2c[nH]c3ccccc23)NC(=O)[C@H](Cc2ccccc2)NC(=O)[C@H](Cc2ccccc2)NC1=O |

| Structure (SMILES) | IC50 [1] | IC50 [2] | IC50 [3] | IC50 [4] | IC50 [5] |
| --- | --- | --- | --- | --- | --- |
| C[C@@H](O)[C@@H]1NC(=O)[C@H](CCCCN)NC(=O)[C@@H](Cc2c[nH]c3ccccc23)NC(=O)[C@H](Cc2ccccc2)NC(=O)[C@H](Cc2ccccc2)NC(=O)C(N)CSSC[C@@H](C(=O)O)NC(=O)[C@H](Cc2ccccc2)NC1=O (single isomer, unassigned) | 9.5 nM | 1 nM | 14 nM | 14.5 nM | 4.5 nM |
| C[C@@H](O)[C@@H]1NC(=O)[C@H](CCCCN)NC(=O)[C@@H](Cc2c[nH]c3ccccc23)NC(=O)[C@H](Cc2ccccc2)NC(=O)[C@H](Cc2ccccc2)NC(=O)[C@@H](N)CSSC[C@H](C(=O)O)NC(=O)[C@H](Cc2ccccc2)NC1=O | 27 nM | 8.2 nM | > 1000 nM | 18 nM | 18.5 nM |
| C[C@@H](O)[C@@H]1NC(=O)[C@H](CCCCN)NC(=O)[C@@H](Cc2c[nH]c3ccccc23)NC(=O)[C@H](Cc2ccccc2)NC(=O)[C@H](Cc2ccccc2)NC(=O)[C@H](N)CSSC[C@H](C(=O)O)NC(=O)[C@H](Cc2ccccc2)NC1=O | 8.7 nM | 2.6 nM | > 1000 nM | 11 nM | 6.3 nM |
